# Measurements as given in PubChem BioAssay AID540261 (Sanford-Burnham Center for Chemical Genomics, 2011).
# Active and inactive are the calls of the source.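 Rule for the calls: active = compounds whose average half-maximal inhibitory concentration on the enzyme falls below 100 micromolar; inactive = the rest.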
# Target: Alkaline phosphatase, tissue-nonspecific isozyme (Homo sapiens) (UniProt P05186)
# Assay: inhibition of tissue-nonspecific alkaline phosphatase – biochemical, set 2, CDP-Star luminescence, selectivity assay for human IAP inhibitor project, SAR follow-up (AID 540261)
# Conditions: purified human TNAP, 30 min
# Sequence of Alkaline phosphatase, tissue-nonspecific isozyme (Homo sapiens) (P05186 whole entry, looked up): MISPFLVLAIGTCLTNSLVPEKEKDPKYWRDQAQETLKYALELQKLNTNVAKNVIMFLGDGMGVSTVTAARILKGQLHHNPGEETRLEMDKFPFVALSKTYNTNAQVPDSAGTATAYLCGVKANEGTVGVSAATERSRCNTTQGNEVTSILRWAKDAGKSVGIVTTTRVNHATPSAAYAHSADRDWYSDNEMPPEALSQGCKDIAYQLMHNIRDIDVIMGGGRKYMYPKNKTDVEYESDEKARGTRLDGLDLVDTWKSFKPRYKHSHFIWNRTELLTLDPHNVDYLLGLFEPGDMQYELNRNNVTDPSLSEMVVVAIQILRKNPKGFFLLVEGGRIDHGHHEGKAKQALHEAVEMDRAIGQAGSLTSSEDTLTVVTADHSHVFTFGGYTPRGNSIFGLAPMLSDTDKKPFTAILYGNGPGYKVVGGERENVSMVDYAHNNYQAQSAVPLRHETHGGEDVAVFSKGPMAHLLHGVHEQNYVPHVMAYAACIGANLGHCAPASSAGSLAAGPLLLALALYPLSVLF
row,IC50,SMILES
1,> 100 µM (inactive),Cc1ccc(C)c(NC(=O)CCNS(=O)(=O)c2ccc3[nH]c(=O)oc3c2)c1
2,> 100 µM (inactive),O=C(CNS(=O)(=O)c1ccc2[nH]c(=O)oc2c1)NCc1ccc2c(c1)OCO2
3,> 100 µM (inactive),N#Cc1ccc(CNC(=O)CCNS(=O)(=O)c2ccc3[nH]c(=O)oc3c2)cc1

# The remaining lines, values behind:
row,SMILES,IC50
1,O=C(CNS(=O)(=O)c1ccc2[nH]c(=O)oc2c1)Nc1ccc2c(c1)OCO2,> 100 µM (inactive)
2,COc1ccc(NC(=O)CNS(=O)(=O)c2ccc3[nH]c(=O)oc3c2)cc1OC,> 100 µM (inactive)
